Source: patent US10570179B2, “Substituted urea depsipeptide analogs as activators of the CLPP endopeptidase” (priority 2016, dated 2020)
Converted amounts (≈) assume the structure as drawn. Read-outs that look alike come from different tables or passages of the source. Numbered stars: 1 amine (or outer) side, 2 acyl side, 3 side chain; on linkers, the order of the positions; unused ones are H or OH. Bridge positions count the residues as written; N and C are the ends. Square brackets hold non-standard residues; d marks the D form. Peptide text beside a SMILES is read from it. * marks the point of attachment. Piperazine(2S-CO,4-Me) = CN1CCN[C@H](C(=O)O)C1; Phe(3-Cl) = N[C@@H](Cc1cccc(Cl)c1)C(=O)O; Phe(3-Me) = Cc1cccc(C[C@H](N)C(=O)O)c1; NH(4-Cl-2-F-phenyl) = Fc1cc(Cl)ccc1N*; Pro(4R-Me) = C[C@H]1CN[C@H](C(=O)O)C1; Hyp = O=C(O)[C@@H]1C[C@@H](O)CN1; NH(4-Me-phenyl) = Cc1ccc(N*)cc1; aThr = C[C@H](O)[C@H](N)C(=O)O; CO = O=C([*:1])[*:2]

Legend:
[1] = test system: S. aureus ΔClpP; test: Minimal inhibitory concentration, microbroth dilution; type: cell-based, Staphylococcus aureus; conditions: MIC; ClpP inactivated
Summary of the method: (§1)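 Growth inhibition was scored visually after overnight aerobic culture at 37 °C in CLSI-style microdilution plates. Inocula contained about 10^5 cfu/mL, and compound concentrations descended in twofold steps from 200 μM.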

[2] = Microsomal metabolic stability; type: in vitro ADME, mouse
Description: Compounds were initially prepared by dissolving them into DMSO at a final concentration of 10 mM. NADPH regenerating solutions A and B and mouse liver microsomes (CD-1) were obtained from BD Gentest (Woburn, Mass.). Ninety-six well deep well plates were obtained from MidWest Scientific Inc (Valley Park, Mo.).
Sample preparation for microsomal stability was modified from methods of Di, L., et al., Int J Pharm. 2005 Jun. 13; 297(1-2):110-9. A set of incubation times of 0, 15, 30, 60, 120, and 240 minutes were used. Mouse liver microsomal solutions were prepared by adding 58 μL of concentrated human or mouse liver microsomes (20 mg/mL protein concentration) to 1.756 mL of 0.1 M potassium phosphate buffer (pH 7.4) and 5 μL of 0.5 M EDTA to make a 0.6381 mg/mL (protein) microsomal solution. NADPH regenerating agent contained 113 μL of NADPH A, 23 μL of NADPH B, and 315 μL of 0.1 M potassium phosphate buffer (pH 7.4). The diluted test compound solutions (2 μL) were each added directly to a 1.79 mL of liver microsomal solution. This solution was mixed and 90 μL was transferred to 6 time points plates (each in triplicate wells). For the time 0 plate, 225 μL of cold acetonitrile with internal standard ([…] warfarin) was added to each well, followed by addition of NADPH regenerating agent (22.5 μL) and no incubation. For other five time points' plate, NADPH regenerating agent (22.5 μL) was added to each well to initiate the reaction. The plates were incubated at 37° C. for the required time, followed by quenching of the reaction by adding 225 μL of cold acetonitrile with internal standard (4 μg/ml warfarin). All of the plates were sealed and mixed well at 600 rpm for 10 minutes followed by centrifugation at 4000 rpm for 20 minutes. The supernatants (120 μL) were transferred to analytical plates for analysis by LCMS. LCMS conditions were described in the materials and instrumentation section above. The metabolic stability is evaluated via the half-life from least-squares fit of the multiple time points based on first-order kinetics.

[3] = target: T1, Sa-ClpP (Staphylococcus aureus, UniProt Q2G036); test: ADEP displacement fluorescence polarization assay; type: binding, S. aureus; conditions: displacement of FP probe ADEP 2591 from Sa-ClpP
T1 construct: made in house; host or cells: E. coli BL21 (DE3)
Description: A fluorescence polarization (FP) assay was used to determine the activity of the disclosed compounds in displacing an ADEP analogue from ClpP. Briefly, the assay was performed in black 384 well, flat bottom, low volume plates (Greiner Bio-One, Monroe, N.C., catalog #784076). 20 μL of a pre-equilibrated (1 hr, room temperature) master mix (15 μM Sa-ClpP, 2% DMSO (v/v) and 50 nM FP probe in TrisHCl, pH 8.0)) was pipetted into each well using a Well-Mate (Thermo Scientific, Waltham, Mass.). Sa-ClpP was prepared as described above for the ClpP activation assay. The FP probe was ADEP 2591 (structure shown above). The ADEP 2591 comprises a TAMRA fluorophore linked to a core based on modified ADEP 2378 via a short alkyl linker. Using pin transfer, approximately 0.4 μL (2% v/v DMSO) of each compound or control was added per well. After addition of compounds and controls, plates were allowed to incubate for an additional 120 minutes at room temperature. All assays were performed in triplicate. Polarization was monitored using an EnVision Multilabel reader (Perkin-Elmer, Waltham, Mass.) by exciting the FP probe at 530±25 nm, and monitoring fluorescence intensity of both parallel and perpendicular polarized light at 579±25 nm. Readout was in millipolarization units (mP).
Signal gain and G factors were determined in wells containing 200 μM ADEP 2378, which had been previously verified (data not shown) as containing completely unbound ADEP 2591. Data collected was normalized to values obtained from positive (200 μM ADEP 2378) or negative (DMSO) controls. Curves were fit with non-linear regression using the equation “log [inhibitor] vs. Response-variable slope (four parameters)-symmetrical” in the program Prism 6 (GraphPad Software, La Jolla, Calif. USA, www.graphpad.com). The structures for ADEP 2378 and ADEP 2591 are shown above. ADEP 2378 is (E)-N—((S)-1-(((2R,6S,8aS,14aS,20S,23aS)-2,6-dimethyl-5,8,14,19,23-pentaoxooctadecahydro-1H,5H,14H,19H-pyrido[2,1-i]dipyrrolo[2,1-c:2′,1′-1][1]oxa[4,7,10,13]tetraazacyclohexadecin-20-yl)amino)-1-oxo-3-phenylpropan-2-yl)pent-2-enamide. ADEP 2591 is 5-(3-(3-((6S,9S,11aS,17S,20aS)-6,10-dimethyl-5,8,11,16,20-pentaoxo-17-((S)-2-((E)-pent-2-enamido)-3-phenylpropanamido)hexadecahydro-1H,5H,16H-dipyrrolo[2,1-c:2′,1′-1][1]oxa[4,7,10,13]tetraazacyclohexadecin-9-yl)propyl)thioureido)-2-(6-(dimethylamino)-3-(dimethyliminio)-3H-xanthen-9-yl)benzoate.

[4] = test system: MRSA NRS70; test: Minimal inhibitory concentration, microbroth dilution; type: cell-based; conditions: Staphylococcus aureus
Summary of the method: as §1

[5] = test system: E. faecails; test: as above; type: cell-based; conditions: Enterococcus faecalis
Summary of the method: as §1

[6] = test system: S. aureus USA 300; test: as above; type: cell-based; conditions: Staphylococcus aureus
Summary of the method: as §1

[7] = test system: S. aureus ATCC 29213; test: as above; type: cell-based; conditions: Staphylococcus aureus
Summary of the method: as §1

[8] = MIC, read-out: Minimal Inhibitory Concentrations (μM) MRSA NRS70
[9] = MIC, read-out: Minimal Inhibitory Concentrations (μM) E. faecails
[10] = USA300, MIC, read-out: Minimal Inhibitory Concentrations (μM) S. aureus USA 300
[11] = ATCC29213, MIC, read-out: Minimal Inhibitory Concentrations (μM) S. aureus ATCC 29213

T1 sequence (Q2G036 whole entry): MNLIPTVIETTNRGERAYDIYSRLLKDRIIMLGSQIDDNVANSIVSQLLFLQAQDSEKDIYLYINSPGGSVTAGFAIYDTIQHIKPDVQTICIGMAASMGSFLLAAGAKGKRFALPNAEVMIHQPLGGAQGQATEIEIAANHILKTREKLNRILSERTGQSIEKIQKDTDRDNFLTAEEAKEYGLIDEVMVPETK

| Compound | Minimal Inhibitory Concentrations (μM) S. aureus ΔClpP [1] [µM] | Mouse ([2]; CD-1, mouse, pH 7.4) | IC50 [3] [µM] | MIC [4, 8] [µM] | MIC [5, 9] [µM] | MIC [6, 10] [µM] | MIC [7, 11] [µM] | Mouse ([2]; microsomal metabolic stability half-life, mouse liver microsomes) | MIC ([4]; read-out: Minimal Inhibitory Concentrations (μM) MRSA NRS70, MIC) [µM] | MIC ([5]; read-out: Minimal Inhibitory Concentrations (μM) E. faecails, MIC) [µM] | MIC ([6]; USA300, read-out: Minimal Inhibitory Concentrations (μM) S. aureus USA 300, MIC) [µM] | MIC ([7]; ATCC29213, read-out: Minimal Inhibitory Concentrations (μM) S. aureus ATCC 29213, MIC) [µM] |
| --- | --- | --- | --- | --- | --- | --- | --- | --- | --- | --- | --- | --- |
| Cc1cccc(C[C@H](NC(=O)Nc2ccc(Cl)cc2F)C(=O)N[C@H]2COC(=O)[C@@H]3C[C@@H](C)CN3C(=O)[C@H](C)NC(=O)[C@@H]3CCCCN3C(=O)[C@@H]3C[C@H](N)CN3C2=O)c1 [Compound 12, (S)—N-((2R,6S,8AS,14AS,16S,20S,23AS)-16-AMINO-2,6-DIMETHYL-5,8,14,19,23-PENTAOXOOCTADECAHYDRO-1H,5H,14H,19H-PYRIDO[2,1-I]DIPYRROLO[2,1-C:2′,1′-L][1]OXA[4,7,10,13]TETRAAZACYCLOHEXADECIN-20-YL)-2-(3-(4-CHLORO-2-FLUOROPHENYL)UREIDO)-3-(M-TOLYL)PROPANAMIDE] | >20 | 2.34 ± 0.44 h | 6.03 ± 0.3 | 1.25 (≈ 1.03 µg/mL) | 1.25 (≈ 1.03 µg/mL) | 0.625 (≈ 0.516 µg/mL) | 1.25 (≈ 1.03 µg/mL) | – | – | – | – | – |
| Cc1ccc(NC(=O)N[C@@H](Cc2cccc(C)c2)C(=O)N[C@@H]2C(=O)N3C[C@H](O)C[C@H]3C(=O)N3CCN(C)C[C@H]3C(=O)N[C@@H](C)C(=O)N3C[C@H](C)C[C@H]3C(=O)O[C@H]2C)cc1 [Compound 30, (S)—N-((6AS,8R,12S,13S,15AS,17R,21S,23AS)-8-HYDROXY-2,13,17,21-TETRAMETHYL-6,11,15,20,23-PENTAOXOOCTADECAHYDRO-2H,6H,11H,15H-PYRAZINO[2,1-I]DIPYRROLO[2,1-C:2′,1′-L][1]OXA[4,7,10,13]TETRAAZACYCLOHEXADECIN-12-YL)-3-(M-TOLYL)-2-(3-(P-TOLYL)UREIDO)PROPANAMIDE] ({NH(4-Me-phenyl)-CO}-[Phe(3-Me)][aThr][Hyp][Piperazine(2S-CO,4-Me)]A[Pro(4R-Me)]; ester 2-C) | >20 | – | 3.41 ± 0.41 | – | – | – | – | 6.21 ± .215 h | 2.5 (≈ 2.04 µg/mL) | 0.313 (≈ 0.256 µg/mL) | 2.5 (≈ 2.04 µg/mL) | 0.625 (≈ 0.511 µg/mL) |
| C[C@@H]1C[C@H]2C(=O)O[C@@H](C)[C@H](NC(=O)[C@H](Cc3cccc(Cl)c3)NC(=O)Nc3ccc(Cl)cc3F)C(=O)N3CCC[C@H]3C(=O)N3CCN(C)C[C@H]3C(=O)N[C@@H](C)C(=O)N2C1 [Compound 33] ({NH(4-Cl-2-F-phenyl)-CO}-[Phe(3-Cl)][aThr]P[Piperazine(2S-CO,4-Me)]A[Pro(4R-Me)]; ester 2-C) | >20 | 0.80 ± .805 h | 3.16 ± 0.16 | 0.039 (≈ 0.0335 µg/mL) | 0.078 (≈ 0.0671 µg/mL) | 0.078 (≈ 0.0671 µg/mL) | 0.078 (≈ 0.0671 µg/mL) | – | – | – | – | – |
